Laboratory results reported in ChEMBL document CHEMBL2150961, “Serum stability of selected decapeptide agonists of KISS1R using pseudopeptides” (Bioorg Med Chem Lett, 2012).
Starred links: 1 amine or outer side, 2 acyl side, 3 side chain; linkers in the order of their positions; H or OH if unused. Non-standard residues stand in square brackets, D forms with d. Residues, ends and D or L forms follow the SMILES beside them. X1 = O=C(CNC(=S)[C@H](Cc1ccccc1)N[*:1])[*:2]; 2Nal = N[C@@H](Cc1ccc2ccccc2c1)C(=O)O; Arg(Me) = CNC(=N)NCCC[C@H](N)C(=O)O; 3Pal = N[C@@H](Cc1cccnc1)C(=O)O; 4Pal = N[C@@H](Cc1ccncc1)C(=O)O; d4Pal = N[C@H](Cc1ccncc1)C(=O)O; azaGly = NNC(=O)O

Legend:
KiSS-1 receptor [1] = biological target: T1, KiSS-1 receptor (Homo sapiens, UniProt Q969F8); test: Agonist activity at human KISS1R assessed as induction of intracellular calcium mobilization by fluorometric analysis; format: functional, cell-based
KiSS-1 receptor [2] = biological target: T1, KiSS-1 receptor; test: Binding affinity to human KISS1R
[3] = Metabolic stability of the compound in mouse serum assessed as compound residual ratio at 0.1 mM after 1 hr; format: ADME, cell-free; details: read-out: Stability
[4] = Metabolic stability of the compound in human serum assessed as compound residual ratio after 5 mins; format: ADME, cell-free; details: read-out: Stability
[5] = Metabolic stability of the compound in human serum assessed as compound residual ratio after 10 mins; format: ADME, cell-free; details: read-out: Stability
[6] = Metabolic stability of the compound in human serum assessed as compound residual ratio after 15 mins; format: ADME, cell-free; details: read-out: Stability
[7] = Half life in human serum; format: ADME, cell-free
KiSS-1 receptor [8] = biological target: KiSS-1 receptor (Rattus norvegicus, UniProt Q924U1); test: Binding affinity to rat KISS1R
Serum = test: Metabolic stability of the compound in human serum; format: ADME, cell-free
[9] = Drug metabolism in mouse plasma at 0.1 mM after 1 min by HPLC-ESI-MS analysis; format: ADME, cell-free; details: read-out: Drug metabolism

Sequence of KiSS-1 receptor (Rattus norvegicus, UniProt Q924U1) (Q924U1 whole entry): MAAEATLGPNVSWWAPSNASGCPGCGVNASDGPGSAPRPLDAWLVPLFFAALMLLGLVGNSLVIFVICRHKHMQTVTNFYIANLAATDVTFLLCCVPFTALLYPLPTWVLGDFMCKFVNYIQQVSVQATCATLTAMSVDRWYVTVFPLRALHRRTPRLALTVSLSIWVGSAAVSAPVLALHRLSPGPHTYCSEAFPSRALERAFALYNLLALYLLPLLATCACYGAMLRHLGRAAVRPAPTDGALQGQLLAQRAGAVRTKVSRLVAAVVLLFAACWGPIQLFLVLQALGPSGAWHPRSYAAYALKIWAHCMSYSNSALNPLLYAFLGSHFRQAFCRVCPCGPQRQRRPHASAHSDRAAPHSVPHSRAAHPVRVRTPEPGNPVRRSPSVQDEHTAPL
T1 sequence (Q969F8 whole entry): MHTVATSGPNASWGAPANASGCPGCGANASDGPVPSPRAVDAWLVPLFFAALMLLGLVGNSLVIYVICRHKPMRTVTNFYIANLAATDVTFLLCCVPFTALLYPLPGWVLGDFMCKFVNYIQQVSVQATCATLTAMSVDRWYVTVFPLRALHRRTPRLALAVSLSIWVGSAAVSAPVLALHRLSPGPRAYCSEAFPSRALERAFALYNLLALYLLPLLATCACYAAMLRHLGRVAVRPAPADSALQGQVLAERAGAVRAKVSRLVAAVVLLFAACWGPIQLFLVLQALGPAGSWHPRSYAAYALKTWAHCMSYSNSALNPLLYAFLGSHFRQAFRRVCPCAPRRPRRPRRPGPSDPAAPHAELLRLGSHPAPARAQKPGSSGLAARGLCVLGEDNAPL

SMILES | EC50 (KiSS-1 receptor [1]) | IC50 (KiSS-1 receptor [2]) | remaining at 1 h, 100 µM [3] | remaining at 5 min [4] | remaining at 10 min [5] | remaining at 0.25 h [6] | half-life [7] | IC50 (KiSS-1 receptor [8]) | Stability (Serum) | metabolised at 1 min, 100 µM [9]
CNC(N)=NCCC[C@H](NC(=O)[C@H](CC(C)C)NC(=O)CNC(=O)[C@H](Cc1ccccc1)NC(=O)[C@H](CO)NC(=O)[C@H](CC(N)=O)NC(=O)[C@H](Cc1c[nH]c2ccccc12)NC(=O)[C@H](CC(N)=O)NC(=O)[C@H](N)Cc1ccc(O)cc1)C(=O)N[C@@H](Cc1ccccc1)C(N)=O | 0.065 nM | 0.11 nM | 18.1% | 90.7% | 85.8% | 82.7% | 1.25 h |  |  | 
CNC(N)=NCCC[C@H](NC(=O)[C@H](CC(C)C)NC(=O)CC(=O)N[C@H](Cc1ccccc1)NC(=O)[C@H](CO)NC(=O)[C@H](CC(N)=O)NC(=O)[C@H](Cc1c[nH]c2ccccc12)NC(=O)[C@H](CC(N)=O)NC(=O)[C@H](N)Cc1ccc(O)cc1)C(=O)N[C@@H](Cc1ccccc1)C(N)=O | 0.95 nM | 0.51 nM | 46.8% |  |  |  |  | 2.9 nM |  | 
CNC(N)=NCCC[C@H](NC(=O)[C@H](CC(C)C)NC(=O)NNC(=O)[C@H](Cc1ccccc1)NC(=O)[C@H](CO)NC(=O)[C@H](CC(N)=O)NC(=O)[C@H](CC1CCCCC1)NC(=O)[C@H](CC(N)=O)NC(=O)[C@H](N)Cc1ccc(O)cc1)C(=O)N[C@@H](Cc1ccccc1)C(N)=O | 0.1 nM | 0.19 nM | 32% |  |  |  |  | 0.24 nM |  | 
CNC(N)=NCCC[C@H](NC(=O)[C@H](CC(C)C)NC(=O)NNC(=O)[C@H](Cc1ccccc1)NC(=O)[C@H](CO)NC(=O)[C@H](CC(N)=O)NC(=O)[C@@H](Cc1c[nH]c2ccccc12)NC(=O)[C@H](CC(N)=O)NC(=O)[C@H](N)Cc1ccc(O)cc1)C(=O)N[C@@H](Cc1ccccc1)C(N)=O | 0.072 nM | 0.19 nM | 56.4% |  |  |  |  |  |  | 
CNC(N)=NCCC[C@H](NC(=O)[C@H](CC(C)C)NC(=O)NNC(=O)[C@H](Cc1ccccc1)NC(=O)[C@H](CO)NC(=O)[C@H](CC(N)=O)NC(=O)[C@H](CO)NC(=O)[C@H](CC(N)=O)NC(=O)[C@H](N)Cc1ccc(O)cc1)C(=O)N[C@@H](Cc1ccccc1)C(N)=O (H-[dY]NSNSF[azaGly]L[Arg(Me)]F-NH2) | 0.73 nM | 0.49 nM | 50% | 86.5% | 85.3% | 86.4% |  | 0.43 nM | Stable | 
CNC(N)=NCCC[C@H](NC(=O)[C@H](CC(C)C)NC(=O)CNC(=S)[C@H](Cc1ccccc1)NC(=O)[C@H](CO)NC(=O)[C@H](CC(N)=O)NC(=O)[C@H](Cc1c[nH]c2ccccc12)NC(=O)[C@H](CC(N)=O)NC(=O)[C@H](N)Cc1ccc(O)cc1)C(=O)N[C@@H](Cc1ccccc1)C(N)=O (H-[dY]NWNS[X1]L[Arg(Me)]F-NH2) | 0.041 nM | 2.8 nM | 35.3% |  |  |  |  | 3.3 nM |  | 
CNC(=N)NCCC[C@H](NC(=O)[C@H](CC(C)C)NC(=O)NNC(=O)[C@H](Cc1ccccc1)NC(=O)[C@H](CO)NC(=O)[C@H](CC(N)=O)NC(=O)[C@H](Cc1ccc2ccccc2c1)NC(=O)[C@H](CC(N)=O)NC(=O)[C@H](N)Cc1ccc(O)cc1)C(=O)N[C@@H](Cc1ccccc1)C(N)=O (H-[dY]N[2Nal]NSF[azaGly]L[Arg(Me)]F-NH2) | 0.098 nM | 0.13 nM | 43.6% |  |  |  |  | 0.2 nM |  | 
CNC(N)=NCCC[C@H](NC(=O)[C@H](CC(C)C)NC(=O)NNC(=O)[C@H](Cc1ccccc1)NC(=O)[C@H](CO)NC(=O)[C@H](CC(N)=O)NC(=O)[C@H](Cc1ccncc1)NC(=O)[C@H](CC(N)=O)NC(=O)[C@H](N)Cc1ccc(O)cc1)C(=O)N[C@@H](Cc1ccccc1)C(N)=O (H-[dY]N[4Pal]NSF[azaGly]L[Arg(Me)]F-NH2) | 0.11 nM | 0.3 nM | 30.7% |  |  |  |  | 0.28 nM |  | 
CNC(N)=NCCC[C@H](NC(=O)[C@H](CC(C)C)NC(=O)NNC(=O)[C@H](Cc1ccccc1)NC(=O)[C@H](CO)NC(=O)[C@H](CC(N)=O)NC(=O)[C@@H](Cc1ccncc1)NC(=O)[C@H](CC(N)=O)NC(=O)[C@H](N)Cc1ccc(O)cc1)C(=O)N[C@@H](Cc1ccccc1)C(N)=O (H-[dY]N[d4Pal]NSF[azaGly]L[Arg(Me)]F-NH2) | 0.59 nM | 0.28 nM |  |  |  |  |  | 0.28 nM |  | 
CC(C)C[C@H](NC(=O)CNC(=O)[C@H](Cc1ccccc1)NC(=O)[C@H](CO)NC(=O)[C@H](CC(N)=O)NC(=O)[C@H](Cc1c[nH]c2ccccc12)NC(=O)[C@H](CC(N)=O)NC(=O)[C@@H](N)Cc1ccc(O)cc1)C(=O)N[C@@H](CCCNC(=N)N)C(=O)N[C@@H](Cc1ccccc1)C(N)=O [KISSPEPTIN-10] | 0.049 nM | 0.082 nM |  | 0.9% | < 0.5% | < 0.5% | < 0.0167 h |  |  | > 50%

Continued, values first:

EC50 (KiSS-1 receptor [1]) | IC50 (KiSS-1 receptor [2]) | remaining at 1 h, 100 µM [3] | remaining at 5 min [4] | remaining at 10 min [5] | remaining at 0.25 h [6] | half-life [7] | IC50 (KiSS-1 receptor [8]) | Stability (Serum) | metabolised at 1 min, 100 µM [9] | SMILES
0.62 nM | 0.61 nM | 12.1% |  |  |  |  | 1.4 nM |  |  | CNC(N)=NCCC[C@H](NC(=O)[C@H](CC(C)C)NC(=O)CNC[C@H](Cc1ccccc1)NC(=O)[C@H](CO)NC(=O)[C@H](CC(N)=O)NC(=O)[C@H](Cc1c[nH]c2ccccc12)NC(=O)[C@H](CC(N)=O)NC(=O)[C@H](N)Cc1ccc(O)cc1)C(=O)N[C@@H](Cc1ccccc1)C(N)=O
 | 0.16 nM | 39.5% |  |  |  |  |  |  |  | CNC(=N)NCCC[C@H](NC(=O)[C@H](CC(C)C)NC(=O)NNC(=O)[C@H](Cc1ccccc1)NC(=O)[C@H](CO)NC(=O)[C@H](CC(N)=O)NC(=O)[C@H](Cc1c[nH]c2ccccc12)NC(=O)[C@H](CC(N)=O)NC(=O)[C@H](N)Cc1ccc(O)cc1)C(=O)N[C@@H](Cc1ccccc1)C(N)=O
0.13 nM | 0.43 nM |  |  |  |  |  | 0.46 nM |  |  | CC[C@H](C)[C@H](NC(=O)[C@H](CC(N)=O)NC(=O)[C@H](N)Cc1ccc(O)cc1)C(=O)N[C@@H](CC(N)=O)C(=O)N[C@@H](CO)C(=O)N[C@@H](Cc1ccccc1)C(=O)NNC(=O)N[C@@H](CC(C)C)C(=O)N[C@@H](CCCNC(=N)NC)C(=O)N[C@@H](Cc1ccccc1)C(N)=O (H-[dY]NINSF[azaGly]L[Arg(Me)]F-NH2)
0.24 nM | 0.86 nM | 62.5% |  |  |  |  | 0.83 nM |  |  | CNC(N)=NCCC[C@H](NC(=O)[C@H](CC(C)C)NC(=O)NNC(=O)[C@H](Cc1ccccc1)NC(=O)[C@H](CO)NC(=O)[C@H](CC(N)=O)NC(=O)[C@@H](NC(=O)[C@H](CC(N)=O)NC(=O)[C@H](N)Cc1ccc(O)cc1)[C@@H](C)O)C(=O)N[C@@H](Cc1ccccc1)C(N)=O (H-[dY]NTNSF[azaGly]L[Arg(Me)]F-NH2)
0.24 nM | 0.7 nM | 50.6% |  |  |  |  | 0.89 nM |  |  | CNC(=N)NCCC[C@H](NC(=O)[C@H](CC(C)C)NC(=O)NNC(=O)[C@H](Cc1ccccc1)NC(=O)[C@H](CO)NC(=O)[C@H](CC(N)=O)NC(=O)[C@H](Cc1cccnc1)NC(=O)[C@H](CC(N)=O)NC(=O)[C@H](N)Cc1ccc(O)cc1)C(=O)N[C@@H](Cc1ccccc1)C(N)=O (H-[dY]N[3Pal]NSF[azaGly]L[Arg(Me)]F-NH2)
